Assay results from US11136324B2, “Substituted imidazoles as apoptosis signal regulating kinase 1 inhibitors” (Jiangsu Hansoh Pharmaceutical Group Co., Ltd., priority 2017, dated 2021).

What was measured:
[1] = target: ASK1 kinase (Homo sapiens (Human), UniProt Q99683); test: ASK1 enzymatic test (TR-FRET); assay type: biochemical; conditions: ASK1 kinase activity
Procedure: In this test, the fluorescence-resonance energy transfer (TR-FRET) method was used to determine the inhibition effect of the test compounds on ASK1 kinase activity, and the half maximal inhibitory concentration IC50 of the compounds on ASK1 kinase activity was obtained.
1) 1˜5 μL of ASK1 enzyme solution was added to a 384-well plate, and the final concentration of the enzyme was 0.220 nM.
2) 1˜5 μL of gradient-diluted compound solution was added.
3) 1˜5 μL of a substrate mixture containing substrate polypeptides (final concentration: 100˜5000 nM) and ATP (final concentration: 100˜1000 uM) were added.
4) The mixture was incubated at room temperature for 0.5 to 5 hours.
5) 10 μL of EDTA and test solution containing labeled antibody were added, and the plate was incubated at room temperature for 2 to 24 hours.
6) The fluorescence signal value of each well was determined by a microplate reader at about 615 nm and 665 nm.
7) The inhibition rate was calculated by the fluorescence signal value.
8) The IC50 of the compound was obtained by curve fitting according to the inhibition rate at different concentrations.

[2] = Pharmacokinetic (PK) assay in mice; assay type: in vivo; conditions: Balb/c male mice, single intragastric administration, 5 mg/kg, plasma; for AUC(0-t) / AUC(0-inf) / half-life / MRT / Cmax: mouse, po; for AUC(0-t): read-out: Area under curve AUC0-t; for AUC(0-inf): read-out: Area under curve AUC0-∞; for half-life: read-out: Half-life t1/2 (converted); for MRT: read-out: Mean residence time MRT; for Cmax: read-out: Plasma concentration Cmax
Procedure: 2. Pharmacokinetic (PK) Assay in Mice
The pharmacokinetic test of the preferred examples of the present invention in mice was carried out in Balb/c male mice (Shanghai Jiesijie Laboratory Animal Co., LTD).
Administration mode: single intragastric administration.
Administration dosage: 5 mg/10 ml/kg.
Formulation: 0.5% CMC-Na, ultrasonic dissolution.
Sampling points: 0.5, 1, 2, 4, 6, 8 and 24 hours after administration.
1) 0.1 mL of blood was taken from the orbit, placed in a K2EDTA tube, and centrifuged for 5˜20 min at room temperature at 1000˜3000×g to separate the plasma, which was then stored at −80° C.
2) 160 μL of acetonitrile was added to 40 μL of plasma sample for precipitation, and then the mixture was centrifuged for 5˜20 minutes at 500˜2000×g.
3) 100 μL, of processed supernatant was taken and analyzed by LC/MS/MS assay to determine the concentration of the test compound.
LC-MS/MS Assay: • Liquid chromatography condition: Shimadzu LC-20AD pump • Mass spectrometry condition: AB Sciex API 4000 mass spectrometer • Chromatographic column: phenomenex Gemiu 5 μm C18 50×4.6 mm • Mobile phase: solution A was 0.1% aqueous formic acid solution, and solution B was acetonitrile • Flow rate: 0.8 mL/min • Elution time: 0-3.5 minutes gradient elution
The main parameters were calculated using WinNonlin 6.1.

Sequence of ASK1 kinase (Q99683 whole entry): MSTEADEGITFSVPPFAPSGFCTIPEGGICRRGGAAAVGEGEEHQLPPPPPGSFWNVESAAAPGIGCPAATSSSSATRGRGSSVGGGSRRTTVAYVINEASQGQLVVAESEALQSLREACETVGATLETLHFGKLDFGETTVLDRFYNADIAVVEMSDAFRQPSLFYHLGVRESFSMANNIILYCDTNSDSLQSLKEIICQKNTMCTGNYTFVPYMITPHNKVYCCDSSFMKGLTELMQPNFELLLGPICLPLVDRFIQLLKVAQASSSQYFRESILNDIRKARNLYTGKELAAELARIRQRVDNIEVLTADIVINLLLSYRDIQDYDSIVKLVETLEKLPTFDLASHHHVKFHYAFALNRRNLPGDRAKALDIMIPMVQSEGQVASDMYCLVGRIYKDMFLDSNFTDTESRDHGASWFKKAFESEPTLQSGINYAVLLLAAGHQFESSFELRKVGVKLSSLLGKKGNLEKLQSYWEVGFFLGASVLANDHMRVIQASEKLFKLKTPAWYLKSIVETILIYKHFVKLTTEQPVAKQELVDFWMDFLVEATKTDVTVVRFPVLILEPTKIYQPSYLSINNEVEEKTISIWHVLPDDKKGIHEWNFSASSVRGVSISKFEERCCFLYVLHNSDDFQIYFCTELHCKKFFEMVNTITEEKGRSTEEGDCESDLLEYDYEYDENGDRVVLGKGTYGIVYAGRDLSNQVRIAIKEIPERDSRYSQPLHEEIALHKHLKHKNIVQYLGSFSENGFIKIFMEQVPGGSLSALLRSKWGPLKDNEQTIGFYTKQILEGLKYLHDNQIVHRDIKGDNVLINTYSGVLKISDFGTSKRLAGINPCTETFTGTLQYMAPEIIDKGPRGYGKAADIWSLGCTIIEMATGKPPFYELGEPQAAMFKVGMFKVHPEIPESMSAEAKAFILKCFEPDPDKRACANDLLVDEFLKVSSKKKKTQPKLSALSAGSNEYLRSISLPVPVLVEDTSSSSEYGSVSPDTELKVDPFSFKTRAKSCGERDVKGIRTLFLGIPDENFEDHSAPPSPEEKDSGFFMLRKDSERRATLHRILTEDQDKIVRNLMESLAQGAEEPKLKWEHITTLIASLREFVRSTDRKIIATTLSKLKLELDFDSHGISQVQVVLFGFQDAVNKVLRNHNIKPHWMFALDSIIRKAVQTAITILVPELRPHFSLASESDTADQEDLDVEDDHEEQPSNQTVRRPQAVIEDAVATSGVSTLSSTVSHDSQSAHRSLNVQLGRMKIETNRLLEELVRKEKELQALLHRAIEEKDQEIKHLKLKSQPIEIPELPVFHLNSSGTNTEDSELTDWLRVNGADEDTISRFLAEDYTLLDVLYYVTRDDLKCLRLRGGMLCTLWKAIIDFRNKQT

Row | Structure (SMILES) | IC50 [1] [nM] | Peak time tmax [2] [h] | AUC(0-t) [2] [ng·h/mL] | AUC(0-inf) [2] [ng·h/mL] | half-life [2] [h] | MRT [2] [h] | Cmax [2] [ng/mL]
1 | COC[C@@H]1CCc2nnc(-c3cccc(NC(=O)c4cc(-n5cnc(C6CC6)c5)c(C)cc4F)n3)n21 [Example 11, (S)-5-(4-Cyclopropyl-1H-imidazol-1-yl)-2-fluoro-N-(6-(5-(methoxymethyl)-6,7-dihydro-5H-pyrrolo[2,1-c][1,2,4]triazol-3-yl)pyridin-2-yl)-4-methylbenzamide] | 10.6 | 1 | 29400 | 29400 | 1.1 | 2.1 | 13200
2 | Cc1cc(F)c(C(=O)Nc2cccc(-c3nnc4n3[C@@H](C)CC4)n2)cc1-n1cnc(C(C)C)c1 [Example 14, (S)-2-Fluoro-5-(4-isopropyl-1H-imidazol-1-yl)-4-methyl-N-(6-(5-methyl-6,7-dihydro-5H-pyrrolo[2,1-c][1,2,4]triazol-3-yl)pyridin-2-yl)benzamide] | 9 | 1 | 21000 | 21000 | 1.3 | 2.8 | 6150
3 | Cc1cc(F)c(C(=O)Nc2cccc(-c3nnc4n3CC(C)C4)n2)cc1-n1cnc(C2CC2)c1 (stereo not shown) [Example 33, 5-(4-Cyclopropyl-1H-imidazol-1-yl)-2-fluoro-4-methyl-N-(6-(6-methyl-6,7-dihydro-5H-pyrrolo[2,1-c][1,2,4]triazol-3-yl)pyridin-2-yl)benzamide] | 7.2 | 0.5 | 47900 | 48600 | 4.7 | 5.9 | 5170
4 | Cc1cc(F)c(C(=O)Nc2cccc(-c3nnc4n3C[C@H](C)C4)n2)cc1-n1cnc(C2CC2)c1 [Example 34, (R)-5-(4-Cyclopropyl-1H-imidazol-1-yl)-2-fluoro-4-methyl-N-(6-(6-methyl-6,7-dihydro-5H-pyrrolo[2,1-c][1,2,4]triazol-3-yl)pyridin-2-yl)benzamide] | 5.2 | 1 | 81100 | 81200 | 2.5 | 4.4 | 13500
5 | Cc1cc(F)c(C(=O)Nc2cccc(-c3nnc4n3C(C(F)(F)F)CC4)n2)cc1-n1cnc(C2CC2)c1 (stereo not shown) [Example 41, 5-(4-Cyclopropyl-1H-imidazol-1-yl)-2-fluoro-4-methyl-N-(6-(5-(trifluoromethyl)-6,7-di hydro-5H-pyrrolo[2,1-c][1,2,4]triazol-3-yl)pyridin-2-yl)benzamide] | 7.7 | 1 | 83900 | 83900 | 2 | 4 | 17100
6 | Cc1cc(F)c(C(=O)Nc2cccc(-c3nnc4n3[C@H](CF)CC4)n2)cc1-n1cnc(C2CC2)c1 [Example 51, (S)-5-(4-Cyclopropyl-1H-imidazol-1-yl)-2-fluoro-N-(6-(5-(fluoromethyl)-6,7-dihydro-5H-pyrrolo[2,1-c][1,2,4]triazol-3-yl)pyridin-2-yl)-4-methylbenzamide] | 4.9 | 1 | 57200 | 57700 | 3.5 | 5.8 | 5890
7 | CC[C@H]1CCc2nnc(-c3cccc(NC(=O)c4cc(-n5cnc(C6CC6)c5)c(C)cc4F)n3)n21 [Example 56, (S)-5-(4-Cyclopropyl-1H-imidazol-1-yl)-N-(6-(5-ethyl-6,7-dihydro-5H-pyrrolo[2,1-c][1,2,4]triazol-3-yl)pyridin-2-yl)-2-fluoro-4-methylbenzamide] | 5 | 1 | 38600 | 42500 | 2.4 | 3.6 | 9940
8 | CCC[C@H]1CCc2nnc(-c3cccc(NC(=O)c4cc(-n5cnc(C6CC6)c5)c(C)cc4F)n3)n21 [Example 60, (S)-5-(4-Cyclopropyl-1H-imidazol-1-yl)-2-fluoro-4-methyl-N-(6-(5-propyl-6,7-dihydro-5H-pyrrolo[2,1-c][1,2,4]triazol-3-yl)pyridin-2-yl)benzamide] | 6.6 | 1 | 29000 | 29900 | 1.3 | 2.6 | 9180

Further compounds by falling IC50 [1], results first:

Row | IC50 [1] [nM] | Peak time tmax [2] [h] | AUC(0-t) [2] [ng·h/mL] | AUC(0-inf) [2] [ng·h/mL] | half-life [2] [h] | MRT [2] [h] | Cmax [2] [ng/mL] | Structure (SMILES)
9 | 4.9 | 1 | 46400 | 46400 | 2.6 | 3.9 | 10900 | Cc1cc(F)c(C(=O)Nc2cccc(-c3nnc4n3CC(C)(C)C4)n2)cc1-n1cnc(C2CC2)c1 [Example 32, 5-(4-Cyclopropyl-1H-imidazol-1-yl)-N-(6-(6,6-dimethyl-6,7-dihydro-5H-pyrrolo[2,1-c][1,2,4]triazol-3-yl)pyridin-2-yl)-2-fluoro-4-methylbenzamide]
10 | 4.1 | 1 | 13600 | 13900 | 1.4 | 2 | 6580 | Cc1cc(F)c(C(=O)Nc2cccc(-c3nnc4n3[C@@H](C)CC4)n2)cc1-n1cnc(C(C)(C)C)c1 [Example 16, (S)-5-(4-(tert-Butyl)-1H-imidazol-1-yl)-2-fluoro-4-methyl-N-(6-(5-methyl-6,7-dihydro-5H-pyrrolo[2,1-c][1,2,4]triazol-3-yl)pyridin-2-yl)benzamide]
11 | 4.1 | 0.5 | 129000 | 130000 | 2.8 | 5.1 | 19400 | C=CC1CCc2nnc(-c3cccc(NC(=O)c4cc(-n5cnc(C6CC6)c5)c(C)cc4F)n3)n21 (stereo not shown) [Example 38, 5-(4-Cyclopropyl-1H-imidazol-1-yl)-2-fluoro-4-methyl-N-(6-(5-vinyl-6,7-dihydro-5H-pyrrolo[2,1-c][1,2,4]triazol-3-yl)pyridin-2-yl)benzamide]
12 | 2.9 | 1 | 19700 | 20200 | 1.4 | 2.3 | 7590 | CCC[C@@H]1CCc2nnc(-c3cccc(NC(=O)c4cc(-n5cnc(C6CC6)c5)c(C)cc4F)n3)n21 [Example 59, (R)-5-(4-Cyclopropyl-1H-imidazol-1-yl)-2-fluoro-4-methyl-N-(6-(5-propyl-6,7-dihydro-5H-pyrrolo[2,1-c][1,2,4]triazol-3-yl)pyridin-2-yl)benzamide]
13 | 2.7 | 1 | 11700 | 11800 | 1 | 2 | 5060 | Cc1cc(F)c(C(=O)Nc2cccc(-c3nnc4n3[C@H](C)CC4)n2)cc1-n1cnc(C(C)C)c1 [Example 13, (R)-2-Fluoro-5-(4-isopropyl-1H-imidazol-1-yl)-4-methyl-N-(6-(5-methyl-6,7-dihydro-5H-pyrrolo[2,1-c][1,2,4]triazol-3-yl)pyridin-2-yl)benzamide]
